Results from PubChem BioAssay (NCI).
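All cell lines were grown in 96-well plates and treated with compound for 48 hours. TGI denotes the concentration required for complete inhibition of growth.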

Legend:
Experiment in all cases: NCI-60 cell line screen, 48 h
786-0 renal = tested on: 786-0 renal
A549 NSCLC = tested on: A549 NSCLC
ACHN renal = tested on: ACHN renal
CAKI-1 renal = tested on: CAKI-1 renal
CCRF-CEM leukemia = tested on: CCRF-CEM leukemia
COLO 205 colon = tested on: COLO 205 colon
DLD-1 colon = tested on: DLD-1 colon
DMS 114 small cell lung = tested on: DMS 114 small cell lung
DMS 273 small cell lung = tested on: DMS 273 small cell lung
EKVX NSCLC = tested on: EKVX NSCLC
HCC-2998 colon = tested on: HCC-2998 colon
HCT-116 colon = tested on: HCT-116 colon
HCT-15 colon = tested on: HCT-15 colon
HL-60(TB) leukemia = tested on: HL-60(TB) leukemia
HOP-62 NSCLC = tested on: HOP-62 NSCLC
HOP-92 NSCLC = tested on: HOP-92 NSCLC
HT29 colon = tested on: HT29 colon
IGROV1 ovarian = tested on: IGROV1 ovarian
K-562 leukemia = tested on: K-562 leukemia
KM12 colon = tested on: KM12 colon
KM20L2 colon = tested on: KM20L2 colon
LOX IMVI melanoma = tested on: LOX IMVI melanoma
LXFL 529 NSCLC = tested on: LXFL 529 NSCLC
M14 melanoma = tested on: M14 melanoma
M19-MEL melanoma = tested on: M19-MEL melanoma
MALME-3M melanoma = tested on: MALME-3M melanoma
MOLT-4 leukemia = tested on: MOLT-4 leukemia
NCI-H226 lung = tested on: NCI-H226 lung
NCI-H23 lung = tested on: NCI-H23 lung
NCI-H460 lung = tested on: NCI-H460 lung
NCI-H522 lung = tested on: NCI-H522 lung
OVCAR-3 ovarian = tested on: OVCAR-3 ovarian
OVCAR-5 ovarian = tested on: OVCAR-5 ovarian
OVCAR-8 ovarian = tested on: OVCAR-8 ovarian
RPMI-8226 leukemia = tested on: RPMI-8226 leukemia
RXF 393 renal = tested on: RXF 393 renal
SF-268 CNS = tested on: SF-268 CNS
SF-539 CNS = tested on: SF-539 CNS
SK-MEL-2 melanoma = tested on: SK-MEL-2 melanoma
SK-MEL-28 melanoma = tested on: SK-MEL-28 melanoma
SK-MEL-5 melanoma = tested on: SK-MEL-5 melanoma
SK-OV-3 ovarian = tested on: SK-OV-3 ovarian
SN12C renal = tested on: SN12C renal
SNB-19 CNS = tested on: SNB-19 CNS
SNB-75 CNS = tested on: SNB-75 CNS
SR leukemia = tested on: SR leukemia
SW-620 colon = tested on: SW-620 colon
TK-10 renal = tested on: TK-10 renal
U251 CNS = tested on: U251 CNS
UACC-257 melanoma = tested on: UACC-257 melanoma
UACC-62 melanoma = tested on: UACC-62 melanoma
UO-31 renal = tested on: UO-31 renal
XF 498 CNS = tested on: XF 498 CNS

Measured: TGI

O=c1nc2n(c3nsnc13)CCO2
> 100 µM: all assays above
